Data as given in patent US12662518B2, “Engineered peptide and peptide mimetic compositions and methods” (The Wistar Institute of Anatomy and Biology, priority 2019, dated 2026).
Entries after “also recorded” stand apart in the source; their conditions may differ. Ends that are not written are not given here. Peptide text beside a SMILES is read from it.

What was measured:
CypD^−/− MEF = assay: cell death of CypD-/- MEF; type: cell-based, mouse; details: 25 μM
Source text: (§1) Cell death and apoptosis.

DU145 or PC3 cells = assay: release of HMGB1 and cyclophilin A from tumor cells, Western blotting; type: cell-based, human; details: marker of necrosis
[1] = test system: drug-sensitive and drug-resistant melanoma cells; details: isogenic pairs, CellTox reactivity
Experimental: (§2) Cell death and apoptosis. […] The various cell-permeable MFF peptides were examined for induction of cytotoxicity using a CellTOX Green cytotoxicity assay kit (Promega). Briefly, 10^4 normal or tumor cells in 100 μl complete medium were plated on white opaque 96-well plate. […] Lysis Solution in the assay kit was used as cytotoxicity control (100% cell death) and treatment with PBS was used as a control for 100% cell viability.

[2] = test system: immortalized wild type (WT) mouse embryonic fibroblasts (MEF); assay: cell death of wild type MEF; type: cell-based; details: 10-50 μM
Source text: as §1

PC3 cells [3] = assay: mitochondrial membrane potential in tumor cells, TMRE, time-lapse videomicroscopy and flow cytometry; type: cell-based, human; details: 10 μM, single-cell time-lapse videomicroscopy or whole cell population
Experimental: Analysis of mitochondrial membrane potential. […] In some experiments, PC3 cells were treated with cell-permeable scrambled peptide or cell-permeable MFF #8-11 peptide, washed three times in PBS, pH 7.4, and analyzed on a FACSCalibur flow cytometer, with the TMRE signal as FL1. Intact cells were gated in the FSC/SSC plot to exclude small debris. Cells treated with 20 μM FCCP 10 min prior to TMRE staining were used as a negative control. The resulting FL1 data were plotted on a histogram. For quantification of membrane potential of purified mitochondria, mitochondria isolated from PC3 cells (50 μg) were suspended in 400 μl of SB buffer (0.2 M sucrose, 10 mM Tris-MOPS, pH 7.4, 5 mM succinate, 1 mM sodium phosphate, 10 μM EGTA-Tris, 2 μM rotenone). […] After two washes with SB buffer, mitochondria were recovered by centrifugation at 6000×g for 10 min, suspended in 100 μl of SB buffer and mitochondrial membrane potential was quantified on a florescence microplate reader (Ex/Em=535/595 nm, Beckman Coulter). […]
For time-lapse videomicroscopy, PC3 cells (2×10^4) growing in high optical-quality glass bottom chambered 8-well cell culture slides (MatTek Corporation) were stained with 100 nM TMRE (Abcam) and 50 nM MitoTracker Green FM (Life Technologies) for 20 min. […] A minimum of 100 cells were analyzed from 2 independent experiments. […]

[4] = test system: prostate cancer cell types (LNCaP, C4-2B, PC3, DU145); assay: cell death of prostate cancer cells, CellTox reactivity; type: cell-based, human; details: for tumor cell death / viability: PC3 / prostate cancer cells, 0-50 μM
Experimental: as §2

glioblastoma LN229 cells = assay: cell death of glioblastoma cells; type: cell-based, human
Source text: as §1

PC3 cells [5] = assay: cytochrome c release from tumor cells, Western blotting; type: cell-based, human; details: supernatants vs mitochondrial extracts
[6] = test system: NSCLC A549 and H460 or breast adenocarcinoma MDA-231 and MCF-7 cells; assay: NSCLC and breast adenocarcinoma cell lines, TMRE flow cytometry and CellTox cell death; type: cell-based, human; details: A549, H460, MDA-231, MCF-7 cells, 10-25 μM
[7] = test system: patient-derived glioblastoma (GBM) neurospheres; assay: patient-derived glioblastoma (GBM) neurospheres, calcein / To-Pro viability; type: cell-based; details: 10-50 μM, 1, 3 or 24 h; scrambled 50 μM
Source text: Glioblastoma (GBM) neurospheres. Primary, patient-derived GBM neurospheres were isolated and maintained in culture essentially as described (Senft, D. & Ronai, Z. A. Regulators of mitochondrial dynamics in cancer. Curr Opin Cell Biol 39, 43-52 (2016)). Tissue samples were obtained from chemotherapy- or radiotherapy-naïve patients with confirmed histological diagnosis of WHO grade IV glioma (GBM) undergoing treatment at the Neurosurgery Division of Fondazione IRCCS Ca' Granda Ospedale Maggiore Policlinco (Milan, Italy). Written informed consent was obtained from all patients. Neurospheres were cyto-spinned on charged slides (Thermo Scientific, Waltham, Mass.) and treated with cell-permeable scrambled peptide (50 μM) or cell-permeable retro-inverso D-enantiomer MFF peptide (10-50 μM) for up to 24 h. Control-normalized changes in cell viability under the various conditions were determined by the ratio of Calcein (alive) and To-Pro (dead) staining and fluorescence microscopy (Eclipse Ti-E, Nikon Instruments, Florence, Italy).

[8] = test system: patient-derived NSCLC organoids; assay: patient-derived NSCLC organoids, Ki-67 and cleaved caspase-3 immunohistochemistry; type: cell-based, human; details: 50-100 μM, 24 h
[9] = test system: patient-derived breast adenocarcinoma organoids; assay: patient-derived breast adenocarcinoma organoids, Ki-67 and cleaved caspase-3 immunohistochemistry; type: cell-based, human; details: 50-100 μM, 24 h
[10] = test system: normal human foreskin fibroblasts (HFF); assay: cell death of normal fibroblasts; type: cell-based; details: 0-40 μM
Source text: as §1

[11] = test system: normal prostatic epithelial cells (BPH-1); assay: cell death of normal prostatic epithelial cells; type: cell-based, human; details: 0-40 μM, 2 h
Source text: as §1

Molecule | cell death of CypD^−/− MEF (CypD^−/− MEF) | HMGB1 release from tumor cells (DU145 or PC3 cells) | cyclophilin A (CypA) release from tumor cells (DU145 or PC3 cells) | cell death of drug-sensitive and drug-resistant melanoma cells [1] | cell death of WT MEF [2] | loss of mitochondrial membrane potential (PC3 cells [3]) | tumor cell death / viability [4] | IC50 ([4]; prostate cancer cell types, read-out: IC50, cell killing) [µM] | IC50 (glioblastoma LN229 cells; glioblastoma, read-out: IC50, cell killing) [µM] | cytochrome c release from tumor cells (PC3 cells [5]) | tumor cell death ([6]; CellTox) | mitochondrial membrane potential ([6]; TMRE) | cytotoxicity for patient-derived GBM neurospheres (loss of cell viability) [7] | apoptosis / cell death markers (cleaved caspase-3^+ cells), NSCLC organoids [8] | cell proliferation (Ki-67^+ cells), NSCLC organoids [8] | apoptosis / cell death markers (cleaved caspase-3^+ cells), breast adenocarcinoma organoids [9] | cell proliferation (Ki-67^+ cells), breast adenocarcinoma organoids [9] | killing of GBM LN229 cells (glioblastoma LN229 cells; 0-40 μM) | cell death of normal fibroblasts (HFF) [10] | cell death of normal prostatic epithelial cells [11]
CC[C@H](C)[C@H](NC(=O)CNC(=O)[C@H](CCCNC(=N)N)NC(=O)[C@H](C)NC(=O)[C@H](CO)NC(=O)[C@H](CCCCN)NC(=O)[C@H](CCSC)NC(=O)[C@H](CCCNC(=N)N)NC(=O)[C@H](CCCNC(=N)N)NC(=O)[C@H](CC(N)=O)NC(=O)[C@H](CCC(N)=O)NC(=O)[C@H](Cc1ccccc1)NC(=O)[C@H](Cc1c[nH]c2ccccc12)NC(=O)[C@@H](NC(=O)[C@H](CCCCN)NC(=O)[C@@H](NC(=O)[C@H](CCC(N)=O)NC(=O)[C@H](CCCNC(=N)N)NC(=O)CCCCCNC(=O)CCCC[C@@H]1SC[C@@H]2NC(=O)N[C@@H]21)[C@@H](C)CC)[C@@H](C)CC)C(=O)N[C@@H](CC(C)C)C(=O)N[C@@H](CO)C(=O)N[C@@H](CC(C)C)C(=O)N[C@H](C(=O)N[C@@H](CCC(N)=O)C(=O)N[C@@H](CO)C(=O)N[C@@H](CO)C(=O)N[C@H](C(=O)N[C@@H](CCCNC(=N)N)C(=O)N[C@@H](CCCNC(=N)N)C(=O)N[C@@H](C)C(=O)N[C@@H](Cc1ccc(O)cc1)C(=O)N[C@@H](CCC(N)=O)C(=O)N[C@@H](CCC(N)=O)C(=O)N[C@H](C(=O)N[C@@H](CC(C)C)C(=O)O)[C@@H](C)CC)[C@@H](C)O)[C@@H](C)CC [cell-permeable MFF peptide #8-11] (HELM PEPTIDE1{[O=C1N[C@H]2[C@H](CS[C@H]2CCCCC(=O)[*:2])N1].[O=C(CCCCCN[*:1])[*:2]].R.Q.I.K.I.W.F.Q.N.R.R.M.K.S.A.R.G.I.L.S.L.I.Q.S.S.T.R.R.A.Y.Q.Q.I.L}$$$$V2.0; N-terminus and C-terminus assumed) | abolished cell death | induced the release of HMGB1 and cyclophilin A (CypA) | induced the release of HMGB1 and cyclophilin A (CypA) | comparably killed | killed immortalized wild type (WT) mouse embryonic fibroblasts (MEF) in a concentration-dependent manner; also recorded: efficiently killed WT MEF in a time- and concentration-dependent response | induced acute loss of mitochondrial membrane potential; also recorded: induced sudden loss of mitochondrial membrane potential | efficiently killed tumor cells in a time- and concentration-dependent manner | ~10 | ~10 | induced cytochrome c release | – | – | – | – | – | – | – | – | – | –
cell-permeable scrambled peptide: cell-permeable control scrambled peptide #8-11 (SEQ ID NO: 22) (SSQLRYLARSQRITIQLIAGS; also: cell-permeable moiety) | – | had no effect on HMGB1 release; also recorded: did not induce HMGB1 release | – | – | – | not | did not kill normal or prostate cancer cells | – | – | – | had no effect | had no effect | not | had no effect | had no effect | had no effect | had no effect | did not cause LN229 cell killing | did not kill normal or prostate cancer cells | did not kill normal or prostate cancer cells
